Entries after “also recorded” stand apart in the source; their conditions may differ. Non-standard residues stand in square brackets, D forms with d. No end group written: not given here.
Columns and labels:
[1] = system: H2O2, hydroxyl radical, and peroxynitrite; assay: Neutralization of reactive species and lipid peroxidation; format: biochemical
mitochondrial ROS = assay: Cellular and animal studies of mitochondrial ROS and function
[2] = system: animal models of ischemia-reperfusion injury, neurodegenerative diseases, and metabolic syndrome; assay: Animal models of ischemia-reperfusion injury, neurodegenerative diseases, and metabolic syndrome; format: in vivo
[3] = system: cytochrome c-depleted mitoplasts made from once-frozen rat kidney mitochondria; assay: O2 consumption in cytochrome c-depleted mitoplasts; format: biochemical; conditions: 500 μM Succinate, 100 μM SS-31; FIG. 7
Description: Rates of respiration were measured in the presence of 500 μM Succinate with or without 100 μM SS-31. The experiment was carried out in triplicate, with n=3.

cytochrome c [4] = target: T1, cytochrome c (Homo sapiens, UniProt P99999); assay: Cytochrome c reduction by absorption spectroscopy (absorbance at 550 nm); format: biochemical; conditions: for rate of cytochrome c reduction: glutathione (GSH) as reducing agent, absorbance at 550 nm, FIG. 1B, FIG. 13
T1 sequence (P99999 whole entry, species assumed): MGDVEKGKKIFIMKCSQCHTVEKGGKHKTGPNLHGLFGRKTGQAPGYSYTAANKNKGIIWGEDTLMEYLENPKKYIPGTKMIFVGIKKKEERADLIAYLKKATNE
Description: Cytochrome c reduction: increasing amounts of aromatic-cationic peptides were added to a solution of oxidized cytochrome c. The formation of reduced cytochrome c was monitored by absorbance at […]. The rate of cytochrome c reduction was determined by non-linear analysis (Prizm software).
Time-resolved UV-Visible absorption spectroscopy was used to study the electron transport process of cytochrome c in the presence of peptides. Reduced cytochrome c was monitored by absorbance at a broad-band spectral range (200-1100 nm). The absorption changes were recorded with a UV/Visible spectrophotometer (Ultrospec 3300 pro, GE) in quartz cells with path lengths of 1 or 2 mm. N-acetylcysteine (NAC) and glutathione were used as electron donors to reduce oxidized cytochrome c. The rate constant of cytochrome c reduction was estimated by adding various concentrations of peptides. The dose dependence of the peptides was correlated to the cytochrome c reduction kinetics.
Absorption spectroscopy (UltroSpec 3300 Pro; 220-1100 nm) was used to determine if SS-31 modulates cytochrome c reduction (FIG. 1). Reduction of cytochrome c with glutathione is associated with multiple shifts in the Q band (450-650 nm), with a prominent shift at 550 nm.
SS-31 and SS-20 can accelerate the kinetics of cytochrome c reduction induced by glutathione (GSH) as a reducing agent (FIG. 13). Reduction of cytochrome c was monitored by increase in absorbance at 550 nm. […] Similar results were obtained using N-acetylcysteine (NAC) as a reducing agent (not shown).

cytochrome c [5] = target: T1, cytochrome c; assay: Circular dichroism of Soret band of cytochrome c; format: biochemical; conditions: FIG. 4
Description: Circular dichroism (Olis spectropolarimeter, DSM20) was carried out to monitor Soret band (negative peak at 415 nm), as a probe for the π-π* heme environment in cytochrome c (FIG. 4). […] The increase in π-π* interaction around the heme would enhance electron tunneling which would be favorable for electron diffusion.

[6] = system: isolated rat kidney mitochondria; assay: O2 consumption of isolated rat kidney mitochondria (Oxygraph); format: biochemical; conditions: for electron flux, as measured by O2 consumption: 100 μM peptide, 0.5 mM succinate (complex II substrate) and 400 μM ADP, FIG. 14
Description: (§1) Mitochondrial O2 consumption and ATP production: Fresh mitochondria were isolated from rat kidney as described previously. Electron flux was measured by O2 consumption (Oxygraph Clark electrode) as previously described using different substrates for C1 (glutamate/malate), C2 (succinate), and C3 (TMPD/ascorbate). Assays were carried out under low substrate conditions in order to avoid saturating the enzyme reactions. ATP production in isolated mitochondria was determined kinetically using the luciferase method (Biotherma) in a 96-well luminescence plate reader (Molecular Devices). The initial maximal rate for ATP synthesis was determined over the first minute.
Oxygen consumption of isolated rat kidney mitochondria was determined using the Oxygraph (FIG. 5). Rates of respiration were measured in the presence of different concentrations of SS-31 in state 2 (400 μM ADP only), state 3 (400 μM ADP and 500 μM substrates) and state 4 (substrates only). All experiments were done in triplicate with n=4-7.
(§2) SS-20 or SS-31 was added at 100 μM concentrations to isolated mitochondria in respiration buffer containing 0.5 mM succinate (complex II substrate) and 400 μM ADP.

cytochrome c [7] = target: T1, cytochrome c; assay: Cyclic voltammetry of cytochrome c; format: biochemical
isolated mitochondria = assay: ATP synthesis in isolated mitochondria; format: biochemical, rat; conditions: for rate of ATP production: isolated mitochondria energized with low concentrations of succinate, FIG. 15
Description: as §1
The rate of mitochondrial ATP synthesis was determined by measuring ATP in respiration buffer collected from isolated mitochondria 1 min after addition of […] (FIG. 6). ATP was assayed by HPLC. All experiments were carried out in triplicate, with n=3.
as §2

cytochrome c [8] = target: T1, cytochrome c; assay: Photoluminescence of cytochrome c (532.8 nm excitation, 650 nm emission); format: biochemical; conditions: Nd:YDO4 laser 532.8 nm
Excerpt: A light source 140, such as a laser or light-emitting diode (LED), illuminates the peptide-doped cytochrome c layer 110 at an excitation wavelength, such as 532.8 nm. […] (As understood by those skilled in the art, the gap between the valence band and the excited state is […] to the excitation wavelength.) After a short relaxation time, the electron decays from the excited state to a conduction band. When the electron relaxes to valence band from the conduction band, the peptide-doped cytochrome c layer 110 emits a photon at a luminescence wavelength, such as 650 nm, fixed by the gap between the valence and conduction bands.
Thus, as the aromatic-cationic peptide concentration in the peptide-doped cytochrome c layer 110 varies due to changes in the pH and/or temperature of the test substrate 130, the intensity at the luminescence wavelength varies as well. Detecting this change in intensity with a photodetector 150 yields an indication of the pH and/or temperature of the test substrate 130.
Photoluminescence (PL) was carried out to examine the effects of SS-31 on the electronic structure of conduction band of the […] of cytochrome c, an energy state responsible for electronic transport (FIG. 3). A […] laser (532.8 nm) was used to excite electrons in cytochrome c (FIG. 2A). Strong PL emission in cytochrome c state can be clearly identified at 650 nm (FIG. 2B).

Substance | lipid peroxidation [1] | neutralization of H2O2, hydroxyl radical, and peroxynitrite [1] | mitochondrial ROS and mitochondrial function (mitochondrial ROS) | efficacy in animal models [2] | mitochondrial O2 consumption (rates of respiration) in cytochrome c-depleted mitoplasts [3] | rate of NAC-induced cytochrome c reduction (cytochrome c [4]; N-acetylcysteine (NAC) as reducing agent) | rate of cytochrome c reduction (cytochrome c [4]) | reduction of cytochrome c by peptide alone (cytochrome c [4]; peptide alone at 100 μM, no reducing agent) | spectral weight shift at 550 nm of cytochrome c (cytochrome c [4]; reduction of cytochrome c with glutathione, FIG. 1A) | denaturing of cytochrome c (cytochrome c [5]) | Soret band peak position after red shift (cytochrome c [5]; negative peak at 415 nm without peptide) [nm] | electron flux, as measured by O2 consumption [6] | rates of respiration (O2 consumption) ([6]; different concentrations of SS-31, state 2, state 3 and state 4, FIG. 5) | current for reduction and oxidation processes of cytochrome c (cytochrome c [7]; Au working electrode, Ag/AgCl reference, FIG. 2 upper panel) | reduction/oxidation potentials of cytochrome c (cytochrome c [7]; FIG. 2 upper panel) | increase of current (electron diffusion rate) (cytochrome c [7]; cytochrome c:SS-31=1:2, TBE buffer, FIG. 2 lower panel) [%] | rate of ATP synthesis (isolated mitochondria; ATP by HPLC 1 min after addition of 400 mM ADP, FIG. 6) | rate of ATP production (isolated mitochondria) | PL intensity of cytochrome c at 650 nm (cytochrome c [8])
D-Arg-2′6′-Dmt-Tyr-Lys-Phe-NH2 | inhibit lipid peroxidation | can neutralize H2O2, hydroxyl radical, and peroxynitrite | reduces mitochondrial ROS and protect mitochondrial function | remarkable efficacy |  |  |  |  |  |  |  |  |  |  |  |  |  |  | 
D-Arg-2′,6′-Dmt-Lys-Phe-NH2 [SS-31] |  |  |  |  | Enhances Respiration | dose-dependently increased | increased; also recorded: accelerate | did not reduce cytochrome c | significant spectral weight shift | without denaturing | 440 | promote electron flux | promoted electron transfer to oxygen without uncoupling mitochondria | increased current | does not alter | ~200 | dose-dependently increased | significant increase | increased dose-dependently
F[dR]FK-NH2 [SS-20] |  |  |  |  |  |  | accelerate |  |  |  |  | promote electron flux |  |  |  |  |  | significant increase | 

Source: patent US20170240593A1, “AROMATIC-CATIONIC PEPTIDES AND USES OF SAME” (Cornell University, priority 2011, published 2017)
